Reference: US9403866B2, “Compositions and methods for increasing telomerase activity” (Telomerase Activation Sciences, Inc., priority 2009, dated 2016)

Assays:
telomerase [1] = molecular target: T1, telomerase (Mus musculus, UniProt O70372); assay: Telomerase activity in short-term liquid culture, lineage-depleted bone marrow cells from wild type mice; type: cell-based; settings: 100 nM and 1 uM, three days
T1 construct: endogenous in cells; host or cells: lineage-depleted bone marrow cells, wild-type mice
T1 sequence (O70372 1-1122): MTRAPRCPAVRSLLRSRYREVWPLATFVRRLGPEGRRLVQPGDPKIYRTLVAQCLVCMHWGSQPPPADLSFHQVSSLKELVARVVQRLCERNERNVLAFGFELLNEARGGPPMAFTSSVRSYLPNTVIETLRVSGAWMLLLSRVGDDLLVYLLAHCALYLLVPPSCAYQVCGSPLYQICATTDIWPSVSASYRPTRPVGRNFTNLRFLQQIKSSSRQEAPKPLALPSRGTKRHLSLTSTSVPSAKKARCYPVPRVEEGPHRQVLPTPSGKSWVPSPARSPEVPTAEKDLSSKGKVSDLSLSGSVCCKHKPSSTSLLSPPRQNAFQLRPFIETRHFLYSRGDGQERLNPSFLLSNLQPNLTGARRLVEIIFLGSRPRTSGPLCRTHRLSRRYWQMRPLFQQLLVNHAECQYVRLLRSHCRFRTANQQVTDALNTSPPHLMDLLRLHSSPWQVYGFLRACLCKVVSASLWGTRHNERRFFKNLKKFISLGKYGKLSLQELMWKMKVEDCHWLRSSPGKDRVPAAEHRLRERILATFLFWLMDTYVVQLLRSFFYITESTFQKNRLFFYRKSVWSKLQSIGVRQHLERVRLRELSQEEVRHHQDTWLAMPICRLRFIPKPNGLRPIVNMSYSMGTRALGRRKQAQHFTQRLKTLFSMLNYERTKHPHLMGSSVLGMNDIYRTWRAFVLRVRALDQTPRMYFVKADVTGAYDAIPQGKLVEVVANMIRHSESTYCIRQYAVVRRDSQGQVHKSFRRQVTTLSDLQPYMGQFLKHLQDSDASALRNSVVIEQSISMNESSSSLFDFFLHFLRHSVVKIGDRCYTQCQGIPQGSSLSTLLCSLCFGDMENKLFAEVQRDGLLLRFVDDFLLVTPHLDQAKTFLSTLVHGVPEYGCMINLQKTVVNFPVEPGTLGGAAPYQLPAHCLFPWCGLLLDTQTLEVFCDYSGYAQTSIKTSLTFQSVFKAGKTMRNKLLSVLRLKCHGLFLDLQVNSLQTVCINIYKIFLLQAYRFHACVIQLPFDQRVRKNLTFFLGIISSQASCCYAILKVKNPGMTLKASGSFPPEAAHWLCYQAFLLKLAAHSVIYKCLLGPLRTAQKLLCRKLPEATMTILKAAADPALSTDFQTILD
Method: (§1) Lineage-depleted bone marrow cells from mTERT heterozygous and wild type mice were grown in IMDM+15% FBS containing stem cell factor (Kitl), IL-3, and IL-11 for three days in the presence of compound 4 (1 uM, 100 nM, or 10 nM), vehicle (0.1% DMSO), or nothing. Telomerase activity in the wild-type cells increased by 40-50% when treated with 100 nM and 1 uM compound 4, relative to the vehicle-treated control.

[2] = Plasma levels and bioavailability in rats; settings: male, Sprague Dawley, rat, in vivo, po, 10 mg/kg
Method: The plasma levels of a compound following a single intravenous and oral administration in carotid artery-cannulated male Sprague Dawley rats was determined. Plasma samples were collected and used to determine the plasma concentration of the compound and metabolites. In addition tissue samples, including whisker samples and PBMC cells were collected for telomerase activity analysis.
Carotid artery-cannulated male Sprague Dawley rats were divided into treatment groups according to Table 6. The rats were provided ad libitum SLAC-MO1 # YY080208 (Shanghai Laboratories Animal Center, Shanghai, China) throughout the in-life portion of the study with the exception of the overnight fasting period prior to oral dosing. Water was available ad libitum.
The compounds were dissolved in 2% EtOH/98% water to yield a final concentration of 2.5 mg/ml and 1 mg/ml for both intravenous and oral administration, respectively. The concentration of each compound was confirmed by HPLC analysis.
Body weights were taken on the day of dose administration. Dose volume was determined based on individual body weight taken on day of dosing.
Blood samples (approximately 250 μL) were collected via cannulae into tubes containing K2-EDTA anticoagulant and 1 mg/ml NaF at the various time points. Blood was stored on ice and then plasma separated via centrifugation (8000 rpm×6 minutes). The plasma was stored at […] until LC-MS/MS analysis.
Percentage of bioavailability was calculated.

Matrigel plugs = assay: Administration to BALB/c mice: total RNA and capillary density in Matrigel plugs; type: in vivo; settings: 10 mg/kg/day PO (BID)
Method: BALB/c mice (2-3 months) were dosed with compound 4 in 2% ethanol at 10 mg/kg/day PO (BID). Mice were pre-dosed for 1 day (Day −1). Matrigel™ (BDBiosciences, California) was injected subcutaneously in the abdomen on Day 0, and the Matrigel™ plugs were harvested on Day 12.
Total RNA, which reflects cell number, was increased 1.6-fold (p<0.2) n=5/group in Matrigel™ plugs after treatment with compound 4.
The other half of the Matrigel™ plug was used for histology and CD31 immunostaining to analyze capillary density (CD31 is a marker for endothelial cells, which line the capillaries). A 1.3-fold increase in capillary density in (CD-31 immuno staining) (p<0.5) n=5/group was observed after treatment with compound 4.

telomerase [3] = molecular target: T1, telomerase; assay: Telomerase activity in short-term liquid culture, lineage-depleted bone marrow cells from mTERT heterozygous mice; type: cell-based; settings: 1 uM, three days
Method: as §1
Telomerase activity in the mTERT heterozygous cells increased by 50% when treated with 1 uM compound 4, relative to the vehicle-treated control.

lung fibroblasts = assay: Long-term culture of lung fibroblasts; type: cell-based, human
[4] = tested on: Matrigel plugs; bone marrow stem/progenitor cells; assay: Administration to aging Tert (+/-) mice: hemoglobin and total RNA in Matrigel plugs, number of bone marrow stem/progenitor cells; type: in vivo, Tert (+/-) mice on a C57BL/6 background; settings: 10 mg/kg/day PO (BID)
Method: Aging Tert (+/−) mice on a C57BL/6 background (8-9 months) were dosed with compound 4 at 10 mg/kg/day PO (BID) in 2% ethanol. Mice were pre-dosed for 1 day (Day −1). Matrigel™ was injected subcutaneously in the abdomen on Day 0, and plugs were harvested on Day 12.
One half of the plug was analyzed for telomerase activity and hemoglobin content, which is indicative of blood vessel formation (RBC cell buffer extraction, followed by M-PER extraction). The other half of the plug was processed for histology.
The Matrigel™ plug has a 1.2-fold increase in hemoglobin levels (p<0.2) n=15/group for mice treated with compound 4.
Total RNA, which reflects cell number, was increased 1.5-fold (p<0.1) n−15/group in Matrigel™ plugs after treatment with compound 4.
Bone marrow stem and progenitor cells were purified using lineage depletion magnetic sorting technology (Miltenyi MACS columns).
The number of purified bone marrow stem/progenitor cells increased 1.5-fold (p<0.1) n=6/group in mice treated with compound 4.

CC(C)C(N)C(=O)OC1CCC23CC24CCC2(C)C(C5(C)CCC(C(C)(C)O)O5)C(O)CC2(C)C4CC(O)C3C1(C)C (stereo not drawn) [Compound 4, 2-(L)-Amino-3-methyl-butyric acid 6α,16β-dihydroxy-17-[5-(1-hydroxy-1-methyl-ethyl)-2-methyl-tetrahydro-furan-2-yl]-4,4,13,14-tetramethyl-tetradecahydro-cyclopropa[9,10]cyclopenta[a]phenanthren-3β-yl ester]
Telomerase activity increase relative to the vehicle-treated control (telomerase [1]): 40-50%
Bioavailability % F [2]: 36%
Total RNA (reflects cell number) increase in Matrigel plugs (Matrigel plugs; Day 12, p<0.2): 1.6 fold
increase in capillary density (CD-31 immuno staining) (Matrigel plugs; Day 12, p<0.5): 1.3 fold
Telomerase activity increase relative to the vehicle-treated control (telomerase [3]): 50%
effect in long-term culture (lung fibroblasts): No effect
Total RNA (reflects cell number) increase in Matrigel plugs ([4]; p<0.1): 1.5 fold
increase in number of purified bone marrow stem/progenitor cells ([4]; p<0.1): 1.5 fold
increase in hemoglobin levels in the Matrigel plug ([4]; p<0.2): 1.2 fold
